The numbers were not newly measured in US20130137759A1, “COMPOSITIONS AND METHODS FOR TREATING PARASITIC DISEASE” (Worcester Polytechnic Institute, priority 2010, published 2013), which cites them from elsewhere.

For data set [1] the following is noted: rats, intragastric in 1:9 dimethyl-acetamide-oil, 10 mg kg^−1 (2,320 μg per rat).

In general, half-life refers to the time needed for the level to fall by half in the phase considered. For the compound `C[C@@H]1CC[C@H]2[C@@H](C)C(=O)O[C@@H]3O[C@@]4(C)CC[C@@H]1[C@]32OO4` [artemisinin], the half-life (healthy male volunteers) is 1 to 3 h. The tmax (humans, pure AN (Rath et al. 2004)) is listed as 2.3 h.

With `COc1cc2oc(-c3ccc(O)c(O)c3)c(OC)c(=O)c2c(O)c1OC` [chrysosplenol-D], the “effect on AN activity against P. falciparum” value in the data set on P. falciparum (combined with pure AN) is given as “significant enhancement of AN activity”. The “direct effect on P. falciparum” value with P. falciparum (flavonoid alone) is on record as “no direct effect”.

With `C[C@H]1[C@@H](O)O[C@@H]2O[C@@]3(C)CC[C@H]4[C@H](C)CC[C@@H]1[C@@]24OO3` [dihydroartemisinin], the “Plasma/serum concentration Artemisinin Cmax” value in data set [1] was 800 ng/mL.
